Test system: 485176-168-R4-J1-PDC spheroids with HUVEC/MSC, viability
Experiment: Anticancer human tumor 485176-168-R4-J1-PDC patient-derived pancreatic adenocarcinoma cell line growth inhibition [GQUAD]
Conditions: for IC50: curve of first compound; for viability, T/C: stronger effect = lower value; active = viability on the fitted dose curve at most 10% of control; inactive = the rest
How it was run: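 Viability of tumor cells grown as complex spheroids with endothelial and stromal cells, exposed to drug combinations. Top concentration at or near clinical Cmax (else 10 microM), diluted in half-log increments.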

[1] = second compound 0.0316 µM, first compound 0.0316 µM
[2] = second compound 0.0316 µM, first compound 0.1 µM
[3] = second compound 0.0316 µM, first compound 0.316 µM
[4] = second compound 0.0316 µM, first compound 1 µM
[5] = second compound 0.0316 µM, first compound 3.16 µM
[6] = second compound 0.0316 µM, first compound 10 µM
[7] = second compound 0.1 µM, first compound 0.0316 µM
[8] = second compound 0.1 µM, first compound 0.1 µM
[9] = second compound 0.1 µM, first compound 0.316 µM
[10] = second compound 0.1 µM, first compound 1 µM
[11] = second compound 0.1 µM, first compound 3.16 µM
[12] = second compound 0.1 µM, first compound 10 µM
[13] = second compound 0.316 µM, first compound 0.0316 µM
[14] = second compound 0.316 µM, first compound 0.1 µM
[15] = second compound 0.316 µM, first compound 0.316 µM
[16] = second compound 0.316 µM, first compound 1 µM
[17] = second compound 0.316 µM, first compound 3.16 µM
[18] = second compound 0.316 µM, first compound 10 µM
[19] = second compound 1 µM, first compound 0.0316 µM
[20] = second compound 1 µM, first compound 0.1 µM
[21] = second compound 1 µM, first compound 0.316 µM
[22] = second compound 1 µM, first compound 1 µM
[23] = second compound 1 µM, first compound 3.16 µM
[24] = second compound 1 µM, first compound 10 µM
[25] = second compound 3.16 µM, first compound 0.0316 µM
[26] = second compound 3.16 µM, first compound 0.1 µM
[27] = second compound 3.16 µM, first compound 0.316 µM
[28] = second compound 3.16 µM, first compound 1 µM
[29] = second compound 3.16 µM, first compound 3.16 µM
[30] = second compound 3.16 µM, first compound 10 µM
[31] = second compound 10 µM, first compound 0.0316 µM
[32] = second compound 10 µM, first compound 0.1 µM
[33] = second compound 10 µM, first compound 0.316 µM
[34] = second compound 10 µM, first compound 1 µM
[35] = second compound 10 µM, first compound 3.16 µM
[36] = second compound 10 µM, first compound 10 µM
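Also: spheroids exposed to compounds for seven days before readout.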
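For viability, T/C in this document: percent viability relative to DMSO vehicle control wells as 100%.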

CC1COCCN1c1cc(C2(O)CC3CCC(C2)O3)c2cnn(-c3ccn[nH]3)c2n1 (centres undefined) + Cc1[nH]c2ccc(F)cc2c1-c1nc2c3cccnc3c3ncccc3c2[nH]1
46.6 nM: IC50 (second compound 3.16 µM)
67.9 nM: IC50 (second compound 0.1 µM)
59.9 nM: IC50 (second compound 10 µM)
active: viability, T/C [5] 11.5% | viability, T/C [6] 7.63% | viability, T/C [10] 8.96% | viability, T/C [11] 12% | viability, T/C [12] 8.29% | viability, T/C [16] 8.98% | viability, T/C [17] 11.9% | viability, T/C [18] 8.2% | viability, T/C [23] 10.7% | viability, T/C [24] 8.42% | viability, T/C [29] 11.1% | viability, T/C [30] 8.07%
71.9 nM: IC50 (second compound 0.0316 µM)
118 nM: IC50 (second compound 0.316 µM)
inactive: viability, T/C [1] 67.4% | viability, T/C [2] 43% | viability, T/C [3] 17.3% | viability, T/C [4] 10.1% | viability, T/C [7] 66.5% | viability, T/C [8] 41.6% | viability, T/C [9] 14.1% | viability, T/C [13] 56.8% | viability, T/C [14] 55.5% | viability, T/C [15] 16.6% | viability, T/C [19] 61.8% | viability, T/C [20] 44% | viability, T/C [21] 19.3% | viability, T/C [22] 12.1% | viability, T/C [25] 57.6% | viability, T/C [26] 35% | viability, T/C [27] 17.2% | viability, T/C [28] 9.84% | viability, T/C [31] 64.1% | viability, T/C [32] 38.7% | viability, T/C [33] 13.5% | viability, T/C [34] 11.5% | viability, T/C [35] 10.8% | viability, T/C [36] 8.33%
67.5 nM: IC50 (second compound 1 µM)

Cc1cccc(N(C)C(=O)C2C(O)CCN2c2nc(C)cc(C(F)(F)F)c2C#N)c1 (centres undefined) + Cc1cnc(CNC(=O)c2c(=O)c3ccc(N4CCCN(C)CC4)nc3n3c2sc2ccccc23)cn1
> 10000 nM: IC50 (second compound 0.0316 µM) | IC50 (second compound 0.1 µM) | IC50 (second compound 0.316 µM) | IC50 (second compound 1 µM)
inactive: viability, T/C [1] 91.9% | viability, T/C [2] 100% | viability, T/C [3] 89% | viability, T/C [4] 97.2% | viability, T/C [5] 96% | viability, T/C [6] 98.3% | viability, T/C [7] 64.2% | viability, T/C [8] 78% | viability, T/C [9] 78.6% | viability, T/C [10] 67.9% | viability, T/C [11] 65.8% | viability, T/C [12] 67.8% | viability, T/C [13] 66.8% | viability, T/C [14] 64% | viability, T/C [15] 56.3% | viability, T/C [16] 60.9% | viability, T/C [17] 66.6% | viability, T/C [18] 60.5% | viability, T/C [19] 52% | viability, T/C [20] 45.5% | viability, T/C [21] 53.9% | viability, T/C [22] 45.9% | viability, T/C [23] 57.1% | viability, T/C [24] 47.5% | viability, T/C [25] 44% | viability, T/C [26] 47.9% | viability, T/C [27] 39.5% | viability, T/C [28] 43.3% | viability, T/C [29] 47.8% | viability, T/C [30] 40.7% | viability, T/C [31] 42.7% | viability, T/C [32] 39% | viability, T/C [33] 43.4% | viability, T/C [34] 38.1% | viability, T/C [35] 45.7% | viability, T/C [36] 40.6%
< 31.6 nM: IC50 (second compound 3.16 µM) | IC50 (second compound 10 µM)

Source: PubChem BioAssay AID2060509 (Molecular Pharmacology Branch, DTP, NCI, 2025)
